# Measurements from US9149038B2, “4-amino-6-(heterocyclic)picolinates and 6-amino-2-(heterocyclic)pyrimidine-4-carboxylates and their use as herbicides” (Dow AgroSciences LLC, priority 2013, dated 2015).
# Read-outs that look alike come from different tables or passages of the source.
# Legend:
# [1] = system: Key Grass and Sedge Weeds as well as Grass Crops; assay: Post-Emergent Test II: postemergent herbicidal activity, visual rating after 14 d (Table 8); assay type: in vivo; settings: post-emergence, 336 h; for pest or weed control at 35 g/ha: 35 g ai/ha; for pest or weed control at 70 g/ha: 70 g ai/ha; for pest or weed control at 140 g/ha: 140 g ai/ha
# Procedure, shortened: (§1)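 Scoring is visual, 0-100, at 14 d after application, comparing treated with untreated plants. Application: overhead track spray at 187 L/ha onto seedlings at 1-2 true leaves, in surfactant/crop-oil carrier.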
# [2] = system: Key Broadleaf Weed and Crop Species; assay: Post-Emergent Test II: postemergent herbicidal activity, visual rating after 14 d (Table 7); assay type: in vivo; settings: post-emergence, 336 h; for pest or weed control at 35 g/ha: 35 g ai/ha; for pest or weed control at 70 g/ha: 70 g ai/ha; for pest or weed control at 140 g/ha: 140 g ai/ha
# Procedure, shortened: as §1
# [3] = barnyardgrass (Echinochloa crus-galli), read-out: Visual Growth Reduction (%) 14 Days After Application ECHCG
# [4] = giant foxtail (Setaria faberi), read-out: Visual Growth Reduction (%) 14 Days After Application SETFA
# [5] = maize, corn (Zea mays), read-out: Visual Growth Reduction (%) 14 Days After Application ZEAMX
# [6] = rice (Oryza sativa), read-out: Visual Growth Reduction (%) 14 Days After Application ORYSA
# [7] = wheat, spring (Triticum aestivum), read-out: Visual Growth Reduction (%) 14 Days After Application TRZAS
# [8] = yellow nutsedge (Cyperus esculentus), read-out: Visual Growth Reduction (%) 14 Days After Application CYPES
# [9] = lambsquarters (Chenopodium album), read-out: Visual Growth Reduction (%) 14 Days After Application CHEAL
# [10] = oilseed rape, canola (Brassica napus), read-out: Visual Growth Reduction (%) 14 Days After Application BRSNN
# [11] = redroot pigweed (Amaranthus retroflexus), read-out: Visual Growth Reduction (%) 14 Days After Application AMARE
# [12] = sunflower (Helianthus annuus), read-out: Visual Growth Reduction (%) 14 Days After Application HELAN
# [13] = velvetleaf (Abutilon theophrasti), read-out: Visual Growth Reduction (%) 14 Days After Application ABUTH
# [14] = wild poinsettia (Euphorbia heterophylla), read-out: Visual Growth Reduction (%) 14 Days After Application EPHHL
structure (smiles),measurement,setting,value
COC(=O)c1nc(-c2ccc3c(c2)OC(C)(C)O3)c(F)c(N)c1Cl [Compound 8],pest or weed control at 35 g/ha,[1]; [3],95 to 100%
same,pest or weed control at 70 g/ha,[1]; [3],95 to 100%
same,pest or weed control at 140 g/ha,[1]; [3],95 to 100%
same,pest or weed control at 35 g/ha,[1]; [4],85 to 94%
same,pest or weed control at 70 g/ha,[1]; [4],95 to 100%
same,pest or weed control at 140 g/ha,[1]; [4],95 to 100%
same,pest or weed control at 35 g/ha,[1]; [5],95 to 100%
same,pest or weed control at 70 g/ha,[1]; [5],95 to 100%
same,pest or weed control at 140 g/ha,[1]; [5],95 to 100%
same,pest or weed control at 35 g/ha,[1]; [6],0 to 29%
same,pest or weed control at 70 g/ha,[1]; [6],0 to 29%
same,pest or weed control at 140 g/ha,[1]; [6],30 to 44%
same,pest or weed control at 35 g/ha,[1]; [7],0 to 29%
same,pest or weed control at 70 g/ha,[1]; [7],30 to 44%
same,pest or weed control at 140 g/ha,[1]; [7],30 to 44%
same,pest or weed control at 35 g/ha,[1]; [8],95 to 100%
same,pest or weed control at 70 g/ha,[1]; [8],95 to 100%
same,pest or weed control at 140 g/ha,[1]; [8],95 to 100%
same,pest or weed control at 35 g/ha,[2]; [9],45 to 59%
same,pest or weed control at 70 g/ha,[2]; [9],75 to 84%
same,pest or weed control at 140 g/ha,[2]; [9],85 to 94%
same,pest or weed control at 35 g/ha,[2]; [10],60 to 74%
same,pest or weed control at 70 g/ha,[2]; [10],60 to 74%
same,pest or weed control at 140 g/ha,[2]; [10],75 to 84%
same,pest or weed control at 35 g/ha,[2]; [11],0 to 29%
same,pest or weed control at 70 g/ha,[2]; [11],45 to 59%
same,pest or weed control at 140 g/ha,[2]; [11],60 to 74%
same,pest or weed control at 35 g/ha,[2]; [12],0 to 29%
same,pest or weed control at 70 g/ha,[2]; [12],45 to 59%
same,pest or weed control at 140 g/ha,[2]; [12],85 to 94%
same,pest or weed control at 35 g/ha,[2]; [13],95 to 100%
same,pest or weed control at 70 g/ha,[2]; [13],95 to 100%
same,pest or weed control at 140 g/ha,[2]; [13],95 to 100%
same,pest or weed control at 35 g/ha,[2]; [14],95 to 100%
same,pest or weed control at 70 g/ha,[2]; [14],95 to 100%
same,pest or weed control at 140 g/ha,[2]; [14],95 to 100%
COC(=O)c1nc(-c2ccc3c(c2)OC(C)(C)O3)nc(N)c1Cl [Compound 55],pest or weed control at 35 g/ha,[1]; [3],75 to 84%
same,pest or weed control at 70 g/ha,[1]; [3],75 to 84%
same,pest or weed control at 140 g/ha,[1]; [3],75 to 84%
same,pest or weed control at 35 g/ha,[1]; [4],75 to 84%
same,pest or weed control at 70 g/ha,[1]; [4],85 to 94%
same,pest or weed control at 140 g/ha,[1]; [4],85 to 94%
same,pest or weed control at 35 g/ha,[1]; [5],60 to 74%
same,pest or weed control at 70 g/ha,[1]; [5],60 to 74%
same,pest or weed control at 140 g/ha,[1]; [5],60 to 74%
same,pest or weed control at 35 g/ha,[1]; [6],0 to 29%
same,pest or weed control at 70 g/ha,[1]; [6],0 to 29%
same,pest or weed control at 140 g/ha,[1]; [6],0 to 29%
same,pest or weed control at 35 g/ha,[1]; [7],0 to 29%
same,pest or weed control at 70 g/ha,[1]; [7],0 to 29%
same,pest or weed control at 140 g/ha,[1]; [7],0 to 29%
same,pest or weed control at 35 g/ha,[1]; [8],0 to 29%
same,pest or weed control at 70 g/ha,[1]; [8],0 to 29%
same,pest or weed control at 140 g/ha,[1]; [8],0 to 29%
same,pest or weed control at 35 g/ha,[2]; [9],45 to 59%
same,pest or weed control at 70 g/ha,[2]; [9],60 to 74%
same,pest or weed control at 140 g/ha,[2]; [9],75 to 84%
same,pest or weed control at 35 g/ha,[2]; [10],0 to 29%
same,pest or weed control at 70 g/ha,[2]; [10],0 to 29%
same,pest or weed control at 140 g/ha,[2]; [10],0 to 29%
same,pest or weed control at 35 g/ha,[2]; [11],45 to 59%
same,pest or weed control at 70 g/ha,[2]; [11],85 to 94%
same,pest or weed control at 140 g/ha,[2]; [11],95 to 100%
same,pest or weed control at 35 g/ha,[2]; [12],45 to 59%
same,pest or weed control at 70 g/ha,[2]; [12],60 to 74%
same,pest or weed control at 140 g/ha,[2]; [12],75 to 84%
same,pest or weed control at 35 g/ha,[2]; [13],75 to 84%
same,pest or weed control at 70 g/ha,[2]; [13],75 to 84%
same,pest or weed control at 140 g/ha,[2]; [13],75 to 84%
same,pest or weed control at 35 g/ha,[2]; [14],95 to 100%
same,pest or weed control at 70 g/ha,[2]; [14],95 to 100%
same,pest or weed control at 140 g/ha,[2]; [14],95 to 100%
